Experiments:
[1] = tested on: caspase-3; assay: Caspase-3 activation (ELISA) in breast HS 578T cancer cell line; type: cell-based, human
Protocol: Apoptosis is triggered by the activation of caspases, particularly caspase-3, which is an […] caspase responsible for apoptosis. Therefore, the induction of apoptosis by compound 6d was examined by the evaluation of caspase-3 activation in breast HS 578T cancer cell line. The effect of erlotinib as well as untreated cell line was used as positive and negative control, respectively. […] . […]
incubated for 15 minutes in the dark at room temperature. FacsCalibur was used to assess cell fluorescence after incubation (BD Biosciences, USA). The results were represented using dot-plot graphs.
1.1.5. Caspase-3 enzyme assay
The level of the apoptotic marker caspase-3 was measured using Invitrogen ELISA Kit Catalog # KHO1091. The procedure of the used kit was performed according to the manufacturer’s instructions. Let all components to reach room temperature before use. Gently combine all liquid reagents prior to use. Add 100 μL of the standard diluent buffer to the zero standard wells. Add 100 μL of standards and controls or diluted samples to the appropriate microtiter wells. Incubate for 2 h at room temperature. Pipette 100 μL of Caspase-3 (Active) detection antibody solution into each well. […] Read the absorbance of each well at 450 nm. Read the plate within 2 h after adding the stop solution. […] Read the concentrations for unknown samples and controls from the standard curve.

[2] = tested on: CAKI-1; assay: cells; type: cell-based
[3] = tested on: HS 578T cells; assay: Annexin V/PI dual staining apoptosis assay; type: cell-based, human
[4] = tested on: MOLT-4; assay: cells; type: cell-based
[5] = tested on: HCT-15; assay: cells; type: cell-based
[6] = tested on: DU-145; assay: cells; type: cell-based
[7] = tested on: HS 578T; assay: cells; type: cell-based
[8] = tested on: RXF 393; assay: cells; type: cell-based
[9] = tested on: A549/ATCC; assay: cells; type: cell-based
[10] = tested on: KM12; assay: cells; type: cell-based
[11] = tested on: MALME-3M; assay: cells; type: cell-based
[12] = tested on: HS 578T cells; assay: Cell cycle analysis by DNA flow cytometry (propidium iodide)
Protocol: Flow cytometry was used to analyse the cell cycle using ab139418 propidium iodide flow cytometry kit/BD (Abcam, Cambridge, UK), as directed by the manufacturer guidelines.
The cells were washed twice with ice-cold phosphate buffer saline (PBS) and collected by centrifugation.
(v/v) ethanol, washed with PBS, and re-suspended with 0.1 mg/mL RNase to digest cellular RNA and thus minimize stained RNA in the background. The cells were next stained with PI, a fluorescent molecule that may bind to nucleic acid, at a concentration of 40 mg/mL. In cells, PI attaches to DNA in proportion to its amount. Because the DNA content of cells at different stages of the cell cycle differs, the fluorescence intensity can be used to assess the stage of cell growth. FacsCalibur (BD Biosciences, USA) was used to estimate cell fluorescence, which was then examined using Cell-Quest software (Becton Dickinson).

[13] = target: EGFR (Homo sapiens, UniProt P00533); assay: In vitro EGFR kinase inhibitory assay (Kinase-Glo Max luminescence kit); type: biochemical
[14] = tested on: SF-295; assay: cells; type: cell-based
[15] = tested on: HL-60(TB); assay: cells; type: cell-based
[16] = tested on: M14; assay: cells; type: cell-based
[17] = tested on: MCF7; assay: cells; type: cell-based
[18] = tested on: U251; assay: cells; type: cell-based
[19] = 24 h at 2.17 µM, vs untreated control

EGFR, sequence (P00533 669-1210): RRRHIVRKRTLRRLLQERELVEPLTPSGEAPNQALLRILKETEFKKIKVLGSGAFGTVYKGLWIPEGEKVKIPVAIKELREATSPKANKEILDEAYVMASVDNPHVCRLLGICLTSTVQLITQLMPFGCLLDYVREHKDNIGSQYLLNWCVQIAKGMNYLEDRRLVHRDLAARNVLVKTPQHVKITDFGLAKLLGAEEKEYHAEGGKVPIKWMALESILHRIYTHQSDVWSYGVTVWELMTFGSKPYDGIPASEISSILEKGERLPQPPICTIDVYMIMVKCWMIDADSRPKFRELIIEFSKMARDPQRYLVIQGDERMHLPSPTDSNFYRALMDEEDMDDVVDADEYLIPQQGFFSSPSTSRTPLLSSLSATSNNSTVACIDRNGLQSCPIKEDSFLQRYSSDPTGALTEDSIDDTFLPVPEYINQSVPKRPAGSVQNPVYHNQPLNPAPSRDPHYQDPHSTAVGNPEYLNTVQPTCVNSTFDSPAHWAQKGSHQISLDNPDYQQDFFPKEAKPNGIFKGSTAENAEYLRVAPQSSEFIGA

## O=C(CSc1nc2ccccc2c(=O)n1-c1ccc(Cl)cc1)NN=Cc1ccc(Oc2ccc(Cl)cc2)cc1 [6d, N'-(4–(4-chlorophenoxy)benzylidene)-2-((3–(4-chlorophenyl)-4-oxo-3,4-dihydroquinazolin-2-yl)thio)acetohydrazide]
[1]
  increase of caspase-3 level compared to negative control: 10.75 fold
[2]; CAKI-1, 5 doses
  TGI: 12.0 µM
[2]; Homo sapiens, CAKI-1
  GI50: 3.06 µM
[2]; Homo sapiens, CAKI-1, read-out: growth inhibition % (GI%)
  inhibition at 10 µM: 67%
[2]; Homo sapiens, CAKI-1, 5 doses, read-out: LC50 (the source's name)
  CC50: 35.4 µM
[3]
  increase in total apoptosis compared to the control: 16.74 fold
[3]; IC50 concentration, 24 h
  Apoptosis Early: 19.24%
  Apoptosis Late: 13.45%
  Apoptosis Total: 39.02%
  Necrosis: 6.33%
[4]; Homo sapiens, MOLT-4
  GI50: 2.29 µM
[4]; Homo sapiens, MOLT-4, read-out: growth inhibition % (GI%)
  inhibition at 10 µM: > 100%
[4]; Homo sapiens, MOLT-4, 5 doses, read-out: LC50 (the source's name)
  CC50: 44.7 µM
[4]; MOLT-4, 5 doses
  TGI: 9.23 µM
[5]; HCT-15, 5 doses
  TGI: 7.48 µM
[5]; Homo sapiens, HCT-15
  GI50: 2.41 µM
[5]; Homo sapiens, HCT-15, read-out: growth inhibition % (GI%)
  inhibition at 10 µM: 89.6%
[5]; Homo sapiens, HCT-15, 5 doses
  LC50 (concentration causing 50% net cell kill): 28.5 µM
[6]; DU-145, 5 doses
  TGI: 20.4 µM
[6]; Homo sapiens, DU-145
  GI50: 3.52 µM
[6]; Homo sapiens, DU-145, read-out: growth inhibition % (GI%)
  inhibition at 10 µM: 86.9%
[6]; Homo sapiens, DU-145, 5 doses, read-out: LC50 (the source's name)
  CC50: > 100 µM
[7]; HS 578T, 5 doses
  TGI: 6.36 µM
[7]; Homo sapiens, Hs-578T
  GI50: 2.17 µM
[7]; Homo sapiens, Hs-578T, read-out: growth inhibition % (GI%)
  inhibition at 10 µM: 78.6%
[7]; Homo sapiens, HS 578T, 5 doses, read-out: LC50 (the source's name)
  CC50: > 100 µM
[8]; Homo sapiens, RXF 393
  GI50: 1.7 µM
[8]; Homo sapiens, RXF 393, read-out: growth inhibition % (GI%)
  inhibition at 10 µM: > 100%
[8]; Homo sapiens, RXF 393, 5 doses, read-out: LC50 (the source's name)
  CC50: 5.81 µM
[8]; RXF 393, 5 doses
  TGI: 3.14 µM
[9]; A549/ATCC, 5 doses
  TGI: 14.0 µM
[9]; Homo sapiens, A549
  GI50: 3.25 µM
[9]; Homo sapiens, A549, read-out: growth inhibition % (GI%)
  inhibition at 10 µM: 83.5%
[9]; Homo sapiens, A549/ATCC, 5 doses
  LC50 (lethal concentration, 50% cell kill): 83.3 µM
[10]; Homo sapiens, KM12
  GI50: 2.04 µM
[10]; Homo sapiens, KM12, read-out: growth inhibition % (GI%)
  inhibition at 10 µM: 82.6%
[10]; Homo sapiens, KM12, 5 doses, read-out: LC50 (the source's name)
  CC50: 26.6 µM
[10]; KM12, 5 doses
  TGI: 5.0 µM
[11]; Homo sapiens, Malme-3M
  GI50: 1.38 µM
[11]; Homo sapiens, Malme-3M, read-out: growth inhibition % (GI%)
  inhibition at 10 µM: > 100%
[11]; Homo sapiens, MALME-3M, 5 doses, read-out: LC50 (the source's name)
  CC50: 5.55 µM
[11]; MALME-3M, 5 doses
  TGI: 2.77 µM
[12]
  phase of cell cycle arrest: G1/S phase
[12]; 24 h at 2.17 µM, vs control
  increase of cell population in the pre-G1 phase: 16.74 fold
[12]; [19]
  decrease in the cell population at the G2/M phase: 52%
  increase of proportion of cells in G0-G1 phase: 1.12 fold
  increase of proportion of cells in S phase: 1.12 fold
[13]
  IC50: 0.069 ± 0.004 µM
[14]; Homo sapiens, SF-295
  GI50: 3.61 µM
[14]; Homo sapiens, SF-295, read-out: growth inhibition % (GI%)
  inhibition at 10 µM: 35.3%
[14]; Homo sapiens, SF-295, 5 doses, read-out: LC50 (the source's name)
  CC50: 36.4 µM
[14]; SF-295, 5 doses
  TGI: 13.3 µM
[15]; HL-60(TB), 5 doses
  TGI: 37.0 µM
[15]; Homo sapiens, HL-60
  GI50: 16 µM
[15]; Homo sapiens, HL-60, read-out: growth inhibition % (GI%)
  inhibition at 10 µM: < 15%
[15]; Homo sapiens, HL-60(TB), 5 doses, read-out: LC50 (the source's name)
  CC50: 85.7 µM
[16]; Homo sapiens, M14
  GI50: 1.58 µM
[16]; Homo sapiens, M14, read-out: growth inhibition % (GI%)
  inhibition at 10 µM: > 100%
[16]; Homo sapiens, M14, 5 doses, read-out: LC50 (the source's name)
  CC50: 7.58 µM
[16]; M14, 5 doses
  TGI: 3.47 µM
[17]; Homo sapiens, MCF7
  GI50: 2.01 µM
[17]; Homo sapiens, MCF7, read-out: growth inhibition % (GI%)
  inhibition at 10 µM: 84.5%
[17]; Homo sapiens, MCF7, 5 doses, read-out: LC50 (the source's name)
  CC50: 25.6 µM
[17]; MCF7, 5 doses
  TGI: 5.5 µM
[18]; Homo sapiens, U-251
  GI50: 1.65 µM
[18]; Homo sapiens, U-251, read-out: growth inhibition % (GI%)
  inhibition at 10 µM: > 100%
[18]; Homo sapiens, U-251, U251, 5 doses, read-out: LC50 (the source's name)
  CC50: 8.23 µM
[18]; U251, 5 doses
  TGI: 3.69 µM

— paper PMC9518264, “Design and synthesis of novel quinazolinone-based derivatives as EGFR inhibitors with antitumor activity” (Journal of Enzyme Inhibition and Medicinal Chemistry, 2022)
